According to US9730944B2, “Antiviral activity of novel bicyclic heterocycles” (priority 2010, dated 2017):
Converted amounts (≈) assume the structure as drawn. Where two headings read alike, the source gives them in different places.

Columns and labels:
in vitro [1] = settings: human, PV CC50
poliovirus (PV type 1) = test: microbe, parasite or virus in culture; format: cell-based; settings: Enterovirus C, read-out: PV-1 EC50
HIV-2 strain (ROD) = test: Inhibition of replication of HIV-2 (ROD strain) in MT-4 cells, MTT assay; format: cell-based; settings: Human immunodeficiency virus 2, MT4, 120 h, read-out: EC50 (μM) HIV-2 (ROD)
poliovirus (PV type 2) = test: microbe, parasite or virus in culture; format: cell-based; settings: Enterovirus C, read-out: PV-2 EC50
poliovirus (PV type 3) = test: microbe, parasite or virus in culture; format: cell-based; settings: Enterovirus C, read-out: PV-3 EC50
in vitro [2] = settings: African green monkey, PV CC50
in vitro [3] = settings: human
HIV-1 strain IIIB = test: Inhibition of replication of HIV-1 (IIIB strain) in MT-4 cells, MTT assay; format: cell-based; settings: Human immunodeficiency virus 1, IIIB, MT4, 120 h, read-out: EC50 (μM) HIV-1 (IIIB)
[4] = MT-4 cells, MTT assay, five days after infection, 50% protection from cytopathic effect

SMILES	CC50 (in vitro [1]) [µg/mL]	EC50 (poliovirus (PV type 1); HeLa) [µg/mL]	EC50 (poliovirus (PV type 1); Vero) [µg/mL]	EC50 (HIV-2 strain (ROD); [4]) [µM]	EC50 (poliovirus (PV type 2); HeLa) [µg/mL]	EC50 (poliovirus (PV type 2); Vero) [µg/mL]	EC50 (poliovirus (PV type 3); HeLa) [µg/mL]	EC50 (poliovirus (PV type 3); Vero) [µg/mL]	CC50 (in vitro [2]) [µg/mL]	CC50 (in vitro [3]) [µM]	EC50 (HIV-1 strain IIIB; [4]) [µM]	EC50 (HIV-2 strain (ROD)) [µM]	EC50 (HIV-1 strain IIIB) [µM]
CCOC(=O)c1nc(N2CCN(C(=O)COc3ccc(Cl)cc3)CC2)c2cc(-c3ccc(F)cc3)sc2n1 [Example 353, ethyl 4-(4-(2-(4-chlorophenoxy)acetyl)piperazin-1-yl)-6-(4-fluorophenyl)thieno[2,3-d]pyrimidine-2-carboxylate]	41.3 (≈ 74.4 µM)	> 50	> 50	> 68.5	≥ 50	≥ 50	> 50	> 50	> 150	68.5	> 68.5	–	–
Nc1nc(N2CCN(C(=O)COc3ccc(Cl)cc3)CC2)c2nc(CCOc3ccc(F)cc3)sc2n1 [Example 48, 1-(4-(5-amino-2-(2-(4-fluorophenoxy)ethyl)thiazolo[5,4-d]pyrimidin-7-yl)piperazin-1-yl)-2-(4-chlorophenoxy)ethanone]	49.4 (≈ 91 µM)	0.35 (≈ 0.645 µM)	0.11 (≈ 0.203 µM)	5.12	0.36 (≈ 0.663 µM)	0.082 (≈ 0.151 µM)	0.97 (≈ 1.79 µM)	0.36 (≈ 0.663 µM)	> 150	11.7	0.63	–	–
COCCNC(=O)c1nc(N2CCN(C(=O)COc3ccc(Cl)cc3)CC2)c2cc(-c3ccc(F)cc3)sc2n1 [Example 356, 4-(4-(2-(4-chlorophenoxy)acetyl)piperazin-1-yl)-6-(4-fluorophenyl)-N-(2-methoxyethyl)thieno[2,3-d]pyrimidine-2-carboxamide]	> 50	> 50	> 50	> 155	≥ 50	≥ 50	> 50	> 50	108 (≈ 185 µM)	> 155	> 155	–	–
CCOC(=O)c1nc(N2CCN(C(=O)Nc3cccc(C)c3)CC2)c2cc(-c3ccc(F)cc3)sc2n1 [Example 361, ethyl 6-(4-fluorophenyl)-4-(4-(m-tolylcarbamoyl)piperazin-1-yl)thieno[2,3-d]pyrimidine-2-carboxylate]	> 50	> 50	> 50	–	≥ 50	> 50	> 50	> 50	61.7 (≈ 119 µM)	156	–	≥ 156	≥ 156
O=C(COc1ccc(Cl)cc1)N1CCN(c2nc(-c3ccccc3)nc3sc(-c4ccc(F)cc4)cc23)CC1 [Example 352, 2-(4-chlorophenoxy)-1-(4-(6-(4-fluorophenyl)-2-phenylthieno[2,3-d]pyrimidin-4-yl)piperazin-1-yl)ethanone]	> 50	> 50	> 50	> 224	≥ 50	> 50	> 50	> 50	> 150	> 224	> 224	–	–
Nc1nc(N2CCN(C(=O)COc3ccc(Cl)cc3)CC2)c2cc(-c3ccc(F)cc3)sc2n1 [Example 326, 1-(4-(2-amino-6-(4-fluorophenyl)thieno[2,3-d]pyrimidin-4-yl)piperazin-1-yl)-2-(4-chlorophenoxy)ethanone]	35.2 (≈ 70.7 µM)	0.13 (≈ 0.261 µM)	0.037 (≈ 0.0743 µM)	4.84	0.051 (≈ 0.102 µM)	0.023 (≈ 0.0462 µM)	0.13 (≈ 0.261 µM)	0.17 (≈ 0.341 µM)	102 (≈ 205 µM)	27.7	> 27.7	–	–
Cc1nc(N2CCN(C(=O)COc3ccc(Cl)cc3)CC2)c2nc(-c3ccc(F)cc3)oc2n1 [Example 168, 2-(4-chlorophenoxy)-1-(4-(2-(4-fluorophenyl)-5-methyl-oxazolo[5,4-d]pyrimidin-7-yl)piperazin-1-yl)ethanone]	> 50	> 50	> 50	> 50	≥ 50	≥ 50	> 50	> 50	83.3 (≈ 173 µM)	> 50	> 50	–	–
Cc1cccc(NC(=O)N2CCN(c3nc(C(N)=O)nc4sc(-c5ccc(F)cc5)cc34)CC2)c1 [Example 362, 6-(4-fluorophenyl)-4-(4-(m-tolylcarbamoyl)piperazin-1-yl)thieno[2,3-d]pyrimidine-2-carboxamide]	> 50	> 50	> 50	–	≥ 50	> 50	> 50	> 50	128 (≈ 261 µM)	255	–	≥ 255	≥ 255
